The data set can be described thus: Maximum solubility of the vitamin D derivative in various excipients (excess active, stirring 12 h, filtration, HPLC assay). It counts as physicochemical. The method, then: In the table below are the solubility results for (4E,6E)-7-[3-(3,4-bishydroxymethylbenzyloxy)phenyl]-3-ethylnona4,6-dien-3-ol, a vitamin D analogue, in various excipients:
These maximum solubilities of (4E,6E)-7-[3-(3,4-bishydroxymethylbenzyloxy)phenyl]-3-ethylnona-4,6-dien-3-ol, a vitamin D analogue, were measured after stirring for 12 h with a magnetic stirrer bar, at room temperature, with an excess of active ingredient in the excipient to be analyzed. The suspension is then filtered (1.2 μm) and then the filtrate is assayed by HPLC.

Each structure is given as a SMILES string.

We go through 1 compound from patent publication US20060029623A1, “Invert emulsions comprising at least one active agent sensitive to water and cosmetic/dermatological applications thereof” (GALDERMA RESEARCH & DEVELOPMENT, S.N.C., priority 2003, published 2006).

On to `CC/C(=C\C=C\C(O)(CC)CC)c1cccc(OCc2ccc(CO)c(CO)c2)c1` [Compound 1, (4E,6E)-7-[3-(3,4-bishydroxymethyl-benzyloxy)phenyl]-3-ethylnona-4,6-dien-3-ol], for which the “Solubility, Concentration in % (w/w)” value reads like this: (in Cetiol SN, room temperature) <0.1 % (w/w); (in Crodamol IPP, room temperature) 0.2 % (w/w); (in Ethanol Rectapur, room temperature) 23.3 % (w/w); (in Eutanol G, room temperature) 0.5 % (w/w); (in Glycerine, room temperature) <0.05 % (w/w); (in Marcol 172, room temperature) <0.05 % (w/w). For the same compound, the “Solubility, Concentration in % (w/w)” value is, setting by setting: (in Miglyol 812, room temperature) 0.4 % (w/w); (in PEG 400, room temperature) 17.8 % (w/w); (in Primol 352, room temperature) <0.05 % (w/w); (in Propylene glycol, room temperature) 6.7 % (w/w); (in Silicone DC 200, room temperature) <0.05 % (w/w); (in Tegosoft TN, room temperature) 0.3 % (w/w). In addition, the “Solubility, Concentration in % (w/w)” value is recorded as 27.0 % (w/w) (in Transcutol, room temperature); <0.05 % (w/w) (solution pH 4, room temperature); <0.05 % (w/w) (solution pH 7, room temperature).
